# From PMC4804635 (European journal of pharmacology, 2016)
# Key:
# [1] = biological target: Recombinant Human ACE2 (rhACE2) (Homo sapiens, UniProt Q9BYF1); assay: ACE2 activity assay with recombinant human ACE2; assay type: biochemical
# ACE in human CD34+ cells = ACE in human CD34+ cells (Homo sapiens, UniProt P12821); assay: ACE activity assay in human CD34+ cell lysates
# ACE in murine heart = biological target: T1, ACE in murine heart (Mus musculus, UniProt P09470); assay: ACE activity assay in murine heart homogenate; assay type: biochemical
# T1 sequence (P09470 35-1312): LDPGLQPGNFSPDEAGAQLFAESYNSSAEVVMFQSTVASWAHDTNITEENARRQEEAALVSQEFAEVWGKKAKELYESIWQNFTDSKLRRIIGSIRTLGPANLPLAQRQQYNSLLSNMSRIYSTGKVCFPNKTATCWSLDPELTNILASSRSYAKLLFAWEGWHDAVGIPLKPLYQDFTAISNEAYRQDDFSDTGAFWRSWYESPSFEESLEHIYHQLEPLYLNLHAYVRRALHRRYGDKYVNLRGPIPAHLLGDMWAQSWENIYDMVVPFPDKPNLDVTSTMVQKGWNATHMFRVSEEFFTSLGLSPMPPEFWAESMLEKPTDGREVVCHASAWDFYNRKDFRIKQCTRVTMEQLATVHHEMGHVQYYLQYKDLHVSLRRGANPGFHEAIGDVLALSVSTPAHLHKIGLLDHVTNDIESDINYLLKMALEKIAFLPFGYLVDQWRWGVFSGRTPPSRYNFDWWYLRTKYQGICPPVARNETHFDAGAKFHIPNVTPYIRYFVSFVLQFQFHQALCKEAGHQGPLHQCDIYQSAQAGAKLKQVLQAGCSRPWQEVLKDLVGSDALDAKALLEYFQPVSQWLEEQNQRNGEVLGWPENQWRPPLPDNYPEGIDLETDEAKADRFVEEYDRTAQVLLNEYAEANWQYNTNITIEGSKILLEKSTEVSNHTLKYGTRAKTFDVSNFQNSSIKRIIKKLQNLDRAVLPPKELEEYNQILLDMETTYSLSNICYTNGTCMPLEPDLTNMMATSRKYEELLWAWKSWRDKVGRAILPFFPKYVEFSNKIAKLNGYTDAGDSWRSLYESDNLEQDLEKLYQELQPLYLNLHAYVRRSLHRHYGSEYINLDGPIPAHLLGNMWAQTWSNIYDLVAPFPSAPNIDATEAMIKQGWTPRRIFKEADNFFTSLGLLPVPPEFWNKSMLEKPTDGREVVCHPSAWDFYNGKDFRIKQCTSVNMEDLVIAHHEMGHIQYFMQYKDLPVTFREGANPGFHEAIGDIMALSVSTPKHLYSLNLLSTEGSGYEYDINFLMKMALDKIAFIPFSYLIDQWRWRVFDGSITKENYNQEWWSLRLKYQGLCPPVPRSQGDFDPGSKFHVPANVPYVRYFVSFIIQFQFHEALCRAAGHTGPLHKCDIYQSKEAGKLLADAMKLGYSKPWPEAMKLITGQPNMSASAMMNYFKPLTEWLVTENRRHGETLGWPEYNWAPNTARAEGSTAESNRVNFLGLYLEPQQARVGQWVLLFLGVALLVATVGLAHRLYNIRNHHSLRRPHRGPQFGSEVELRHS
# Murine MNC ACE2 = Murine MNC ACE2 (Mus musculus, UniProt Q8R0I0); assay: ACE2 activity assay in murine mononuclear cell lysates
# Sequence of Murine MNC ACE2 (Q8R0I0 18-805): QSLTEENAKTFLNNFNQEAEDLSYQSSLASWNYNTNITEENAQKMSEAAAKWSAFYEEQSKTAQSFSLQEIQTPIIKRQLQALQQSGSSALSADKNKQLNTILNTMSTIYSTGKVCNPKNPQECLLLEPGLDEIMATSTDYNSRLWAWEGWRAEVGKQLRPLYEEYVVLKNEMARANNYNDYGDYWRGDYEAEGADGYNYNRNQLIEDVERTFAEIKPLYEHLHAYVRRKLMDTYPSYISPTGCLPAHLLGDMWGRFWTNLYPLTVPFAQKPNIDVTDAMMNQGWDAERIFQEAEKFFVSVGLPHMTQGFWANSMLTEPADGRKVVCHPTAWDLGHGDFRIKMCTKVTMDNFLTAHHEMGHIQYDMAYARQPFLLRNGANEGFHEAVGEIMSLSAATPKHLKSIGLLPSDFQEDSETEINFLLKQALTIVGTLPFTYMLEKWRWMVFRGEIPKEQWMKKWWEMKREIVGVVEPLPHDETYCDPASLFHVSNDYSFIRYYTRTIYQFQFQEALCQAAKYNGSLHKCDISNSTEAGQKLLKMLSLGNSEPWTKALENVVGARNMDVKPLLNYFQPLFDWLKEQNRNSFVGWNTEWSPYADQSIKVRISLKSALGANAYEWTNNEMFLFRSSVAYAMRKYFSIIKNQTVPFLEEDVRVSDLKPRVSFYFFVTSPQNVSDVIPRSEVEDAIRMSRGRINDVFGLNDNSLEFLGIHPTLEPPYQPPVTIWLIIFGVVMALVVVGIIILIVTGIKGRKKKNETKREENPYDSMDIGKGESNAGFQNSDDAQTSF
# ACE2 in murine heart = ACE2 in murine heart (Mus musculus, UniProt Q8R0I0); assay: ACE2 activity assay in murine heart homogenate; assay type: biochemical
# Human MNC ACE = Human MNC ACE (Homo sapiens, UniProt P12821); assay: ACE activity assay in human mononuclear cell lysates; conditions: cell lysate 10 μg protein, 4 h
# Sequence of Human MNC ACE (P12821 30-1306): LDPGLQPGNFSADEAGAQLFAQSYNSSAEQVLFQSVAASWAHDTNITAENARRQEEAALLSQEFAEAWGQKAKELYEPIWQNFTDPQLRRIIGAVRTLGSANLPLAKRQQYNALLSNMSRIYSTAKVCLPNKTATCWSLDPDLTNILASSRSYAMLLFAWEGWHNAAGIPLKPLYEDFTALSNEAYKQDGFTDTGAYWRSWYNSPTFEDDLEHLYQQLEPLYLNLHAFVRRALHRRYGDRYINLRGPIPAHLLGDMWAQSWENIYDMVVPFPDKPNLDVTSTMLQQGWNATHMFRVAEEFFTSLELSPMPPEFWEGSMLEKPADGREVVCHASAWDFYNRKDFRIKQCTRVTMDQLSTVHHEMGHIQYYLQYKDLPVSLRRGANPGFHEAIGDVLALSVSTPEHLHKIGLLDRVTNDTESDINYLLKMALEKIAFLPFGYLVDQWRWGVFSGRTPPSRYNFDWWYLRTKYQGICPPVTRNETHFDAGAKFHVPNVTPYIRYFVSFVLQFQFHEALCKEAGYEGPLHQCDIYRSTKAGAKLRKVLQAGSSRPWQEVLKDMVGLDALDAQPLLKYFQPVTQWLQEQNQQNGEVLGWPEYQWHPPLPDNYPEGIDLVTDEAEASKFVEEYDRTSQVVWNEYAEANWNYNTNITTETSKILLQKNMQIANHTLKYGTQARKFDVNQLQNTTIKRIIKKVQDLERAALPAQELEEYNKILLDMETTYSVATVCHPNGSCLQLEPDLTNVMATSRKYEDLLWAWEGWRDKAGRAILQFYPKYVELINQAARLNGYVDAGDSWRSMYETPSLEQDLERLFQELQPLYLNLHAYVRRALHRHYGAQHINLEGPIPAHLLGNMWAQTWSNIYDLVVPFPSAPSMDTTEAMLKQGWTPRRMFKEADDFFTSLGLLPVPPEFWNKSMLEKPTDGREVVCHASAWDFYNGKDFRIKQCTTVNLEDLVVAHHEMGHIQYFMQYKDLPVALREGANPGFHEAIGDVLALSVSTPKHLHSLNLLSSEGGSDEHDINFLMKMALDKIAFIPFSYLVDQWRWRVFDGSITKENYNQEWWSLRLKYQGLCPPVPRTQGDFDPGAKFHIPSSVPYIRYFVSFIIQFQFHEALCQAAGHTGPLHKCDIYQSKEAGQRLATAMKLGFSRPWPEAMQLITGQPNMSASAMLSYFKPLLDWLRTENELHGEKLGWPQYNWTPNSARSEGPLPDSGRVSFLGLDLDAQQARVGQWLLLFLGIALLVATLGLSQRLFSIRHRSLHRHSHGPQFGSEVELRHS
# Murine MNC ACE = biological target: T2, Murine MNC ACE (Mus musculus, UniProt P09470); assay: ACE activity assay in murine mononuclear cell lysates
# T2 sequence (P09470 35-1312): T1 sequence (P09470 35-1312)
# [2] = biological target: ACE2 in human CD34+ cells (Homo sapiens, UniProt Q9BYF1); assay: ACE2 activity assay in human CD34+ cell lysates; conditions: for Imax at ACE2 in human CD34+ cells: cell lysate, 4 h, n=6
# Sequence of ACE2 in human CD34+ cells (Q9BYF1 18-805): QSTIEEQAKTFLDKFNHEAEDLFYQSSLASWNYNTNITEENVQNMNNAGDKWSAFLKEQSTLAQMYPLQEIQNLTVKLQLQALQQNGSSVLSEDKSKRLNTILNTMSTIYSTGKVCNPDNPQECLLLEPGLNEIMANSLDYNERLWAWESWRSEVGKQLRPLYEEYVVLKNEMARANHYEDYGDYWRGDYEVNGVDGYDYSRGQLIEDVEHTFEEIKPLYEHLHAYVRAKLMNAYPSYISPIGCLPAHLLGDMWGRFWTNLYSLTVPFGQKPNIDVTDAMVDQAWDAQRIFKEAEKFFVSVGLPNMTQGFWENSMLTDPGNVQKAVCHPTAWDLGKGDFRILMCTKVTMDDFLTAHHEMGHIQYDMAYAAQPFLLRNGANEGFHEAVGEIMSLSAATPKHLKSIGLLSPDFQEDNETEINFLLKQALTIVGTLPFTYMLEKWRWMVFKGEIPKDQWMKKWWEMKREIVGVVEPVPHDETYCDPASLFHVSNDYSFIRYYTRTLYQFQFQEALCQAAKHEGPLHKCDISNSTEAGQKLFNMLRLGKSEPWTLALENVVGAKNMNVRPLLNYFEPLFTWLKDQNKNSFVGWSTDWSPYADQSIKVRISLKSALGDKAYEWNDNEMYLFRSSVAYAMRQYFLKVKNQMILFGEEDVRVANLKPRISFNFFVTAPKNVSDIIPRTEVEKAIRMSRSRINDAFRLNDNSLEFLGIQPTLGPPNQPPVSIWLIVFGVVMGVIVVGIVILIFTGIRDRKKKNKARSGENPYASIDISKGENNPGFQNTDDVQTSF
# Human MNC ACE2 = Human MNC ACE2 (Homo sapiens, UniProt Q9BYF1); assay: ACE2 activity assay in human mononuclear cell lysates; conditions: for Imax at ACE2 in human MNCs: cell lysate 10 μg protein, 4 h
# Sequence of Human MNC ACE2 (Q9BYF1 18-805): as above
# [3] = biological target: Recombinant Human ACE (rhACE) (Homo sapiens, UniProt P12821); assay: ACE activity assay with recombinant human ACE; assay type: biochemical
# Sequence of Recombinant Human ACE (rhACE) (P12821 30-1306): as the sequence (P12821 30-1306) above
# [4] = recombinant enzyme, 50 μM substrate, pH 6.5, 1 h
# Sequence of Recombinant Human ACE2 (rhACE2) (Q9BYF1 18-805): as the sequence (Q9BYF1 18-805) above
# Sequence of ACE in human CD34+ cells (P12821 30-1306): as the sequence (P12821 30-1306) above
structure (smiles),measurement,setting,value
"CC(C)C[C@H](N[C@@H](Cc1cncn1Cc1cc(Cl)cc(Cl)c1)C(=O)O)C(=O)O [isomer B, (2S)-2-[[(2S)-3-[3-[(3,5-dichlorophenyl)methyl]imidazol-4-yl]-1-hydroxy-1-oxopropan-2-yl]amino]-4-methylpentanoic acid]",Ki,[1],40 ± 5 nM
same,IC50,"[1]; IC50, Recombinant Human ACE2",10 ± 6 nM
same,Maximum inhibition (Imax) of rhACE2,[1]; [4],80±3%
same,IC50,ACE in human CD34+ cells,12600 nM
same,Imax at ACE in human CD34+ cells,"ACE in human CD34+ cells; cell lysate, 4 h, n=6",19±2%
same,IC50,ACE in murine heart,63100 nM
same,Ki,Murine MNC ACE2,2100 ± 200 nM
same,IC50,"Murine MNC ACE2; pIC50 at ACE2 in murine MNCs, cell lysate, 4 h",79.4 nM
same,IC50,ACE2 in murine heart,251 nM
same,Imax at ACE in human MNCs,Human MNC ACE,34±1%
same,IC50,Murine MNC ACE,20000 nM
same,IC50,[2],316 nM
same,Imax at ACE2 in human CD34+ cells,[2],38±4%
same,Imax at ACE2 in human CD34+ cells,[2]; listed as MLN-4760-B,38%
same,Ki,Human MNC ACE2,200 ± 10 nM
same,IC50,"Human MNC ACE2; IC50, Human ACE2 (human MNCs)",500 ± 30 nM
same,Imax at ACE2 in human MNCs,Human MNC ACE2,63±2%
same,Imax at ACE2 in human MNCs,Human MNC ACE2; listed as MLN-4760-B,63%
same,inhibition at 10 µM,[3]; read-out: inhibition of rhACE activity,43%
same,Imax at rhACE,[3]; [4],46±1%
